Results on five compounds are retold here after US20250034211A1, “C-TERMINAL EXTENDED P53 ACTIVATOR CROSSLINKED PEPTIDOMIMETIC MACROCYCLES AGAINST MDM2/MDMX” (Merck Sharp & Dohme LLC, priority 2021, published 2025).

The target of data set [1] is T1, MDM2 (1-125; SEQ ID NO 14) (Homo sapiens, UniProt Q00987).
T1 construct: GST (N); His6 (internal); TEV cleavage site ENLYFQG (internal); made in house; host or cells: E. coli BL21 (DE3) Rosetta T1R
The experiment in a line: MDM2 binding assay (fluorescence anisotropy competition, FP). On the procedure:
[P] is the protein concentration (MDM2), [L] is the labeled peptide concentration, r is the anisotropy measured, r0 is the anisotropy of the free peptide, rb is the anisotropy of the MDM2-FAM-labeled peptide complex, Kd is the dissociation constant, [L]t is the total FAM labeled peptide concentration, and [P]t is the total MDM2 concentration. […] The competing molecules were then titrated against the complex of the FAM-labeled peptide and protein. Apparent Kd values were determined by fitting the experimental data to the equations shown below:
[L]st and [L]t denote labeled ligand and total unlabeled ligand input concentrations, respectively. Kd2 is the dissociation constant of the interaction between the unlabeled ligand and the protein. In all competition experiments, it is assumed that [P]t>[L]st, otherwise considerable amounts of free labeled ligand would always be present and would interfere with measurements. […] The FAM-labeled peptide was dissolved in dimethyl sulfoxide (DMSO) at 1 mM and diluted into experimental buffer. Readings were carried out with an Envision Multilabel Reader (PerkinElmer). […] All titrations were carried out in triplicate. Curve-fitting was carried out using Prism 4.0 (GraphPad). […] Negative control titrations of the ligands under investigation were also carried out with the fluorescently labeled peptide (in the absence of MDM2) to ensure no interactions were occurring between the ligands and the FAM-labeled peptide.
(In general: In fluorescence polarisation assays a small probe gives low polarisation when free and higher when bound to something large.)

For another data set, the system named is HCT116 cells. As to the kind of experiment: Lactate dehydrogenase release assay (LDH). The data set is classed as cell-based. On the procedure:
HCT116 cells were seeded into a 384-well plate at a density of 8000 cells per well. Cells were maintained in McCoy's 5A Medium with 10% fetal bovine serum (FBS), Blasticidin and Penicillin/Streptomycin. The cells were incubated overnight followed by the removal of cell media and the addition of Opti-MEM Medium without FBS. Cells were then treated with peptides for 4/16 hours in Opti-MEM either in 10% FBS or serum free. Final concentration of DMSO was 0.5%. Lactate dehydrogenase release was detected using CytoTox-ONE Homogenous Membrane Integrity Assay Kit (Promega) as per manufacturer's instructions. Measurements were carried out using Tecan plate reader. Maximum LDH release was defined as the amount of LDH released induced by the lytic peptide (iDNA79) and used to normalize the results.

For data set [2], the system named is Jump-In T-REx CHO-K1 BLA cells. The experiment in a line: Tetracycline beta-lactamase reporter gene assay (counter screen). The data set is classed as cell-based. Here is the method:
Based on Jump-In™ T-REx™ CHO-K1 BLA cells and contain a stably integrated β-lactamase under the control of an inducible CMV promoter. Cells were seeded into a 384-well plate a density of 4000 cells per well. Cells were maintained in Dulbecco's Minimal Eagle Medium (DMEM) with 10% fetal bovine serum (FBS), Blasticidin and Penicillin/Streptomycin. The cells were incubated for 24 hours, followed by cell media removal and replacement with Opti-MEM either containing 10% FBS or 0% FBS. Peptides were then dispensed to each well using a liquid handler, ECHO 555 and incubated for 4/16 hours. Final working concentration of DMSO was 0.5%. β-Lactamase activity was detected using the ToxBLAzer Dual Screen (Invitrogen) as per manufacturer's instructions. Measurements were carried out using Envision multiplate reader (Perkin Elmer). Counter Screen activity was defined as the amount of 0-lactamase activity induced by tetracycline.
A general note: A reporter such as luciferase makes a cellular process visible.

Data set [3] deals with p53 (HCT116 cells stably transfected with a p53 responsive β-lactamase reporter). The experiment in a line: p53 beta-lactamase reporter gene cellular functional assay. The data set is classed as cell-based. Here is the method:
HCT116 cells were stably transfected with a p53 responsive β-lactamase reporter, and were seeded into a 384-well plate at a density of 8,000 cells per well. Cells were maintained in McCoy's 5A Medium with 10% fetal bovine serum ([…]), Blasticidin and Penicillin/Streptomycin. The cells were incubated overnight and followed by removal of cell growth media and replaced with Opti-MEM either containing 0% FBS or 10% FBS. Peptides were then dispensed to each well using a liquid handler, ECHO 555 and incubated for 4/16 hours. Final working concentration of dimethyl sulfoxide (DMSO) was 0.5%. β-Lactamase activity was detected using the ToxBLAzer Dual Screen (Invitrogen) as per manufacturer's instructions. Measurements were done using Envision multiplate reader (Perkin-Elmer). Maximum p53 activity was defined as the amount of β-lactamase activity induced by 50 μM azide-ATSP-7041 (stapled p53 peptide; Aileron Therapeutics, Inc.). This was determined as the highest amount of p53 activity induced by azide-ATSP-7041 by titration on HCT116 cells.

A short description of the next data set: Solubility (PBS, pH 7). The conditions noted are these: pH 7.

In brackets after ≈: the same amount, converted by molar mass. *1 amine or outer side, *2 acyl side, *3 side chain or, on linkers, in order; H or OH if unused. Where a SMILES comes first, the peptide text is derived from it. Bridges are numbered along the chain shown (N, C = ends). [ ]: non-standard residue; d: D form. ξ: configuration not given here. ξαMeNle(6-ylidene) = CC(CCCC=[*:3])(N[*:1])C(=O)[*:2]; X1 = CC(CCCCCCC=[*:3])(N[*:1])C(=O)[*:2]; Lys(N3) = [N-]=[N+]=NCCCC[C@H](N)C(=O)O; R8 = C=CCCCCCC[C@@](C)(N)C(=O)O; ξαMeE = CC(N)(CCC(=O)O)C(=O)O; Cba = N[C@@H](CC1CCC1)C(=O)O; S5 = C=CCCC[C@](C)(N)C(=O)O; βAla = NCCC(=O)O

As a reminder, the Kd is the free concentration of one partner at which half of the binding sites on the other are occupied at equilibrium, for simple one-to-one binding. For orientation: % inhibition means the percentage by which the read-out fell short of the control. A low value points to a weak effect. What is called logD is the decadic logarithm of the distribution of all forms, ionised or not, between an organic phase and buffer at a given pH. What is called solubility is how much of the substance goes into solution per volume. A lower solubility goes with a poorly soluble substance. The term chromatographic logD denotes a lipophilicity value derived from retention on a column.

T1 sequence (Q00987 with tags, fused parts or gaps): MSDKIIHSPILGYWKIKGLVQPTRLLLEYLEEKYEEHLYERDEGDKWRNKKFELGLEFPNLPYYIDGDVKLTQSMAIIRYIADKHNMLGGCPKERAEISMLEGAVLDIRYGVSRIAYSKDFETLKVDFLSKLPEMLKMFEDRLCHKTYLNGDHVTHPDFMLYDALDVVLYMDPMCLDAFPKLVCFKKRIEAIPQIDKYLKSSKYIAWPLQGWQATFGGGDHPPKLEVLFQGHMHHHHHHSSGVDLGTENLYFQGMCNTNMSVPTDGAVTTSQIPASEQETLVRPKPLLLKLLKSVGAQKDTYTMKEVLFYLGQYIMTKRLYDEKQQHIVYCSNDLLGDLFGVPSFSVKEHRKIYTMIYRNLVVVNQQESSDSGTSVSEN

In data set [1], `CC(=O)N[C@@H](CCCCN=[N+]=[N-])C(=O)NCCC(=O)N[C@@H](CC(C)C)C(=O)N[C@H](C(=O)N[C@@H](Cc1ccccc1)C(=O)N[C@]1(C)CCCCCCC=CCCC[C@@](C)(C(=O)N[C@@H](C)C(=O)N[C@@H](C)C(=O)N[C@@H](C)C(=O)N[C@@H](C)C(=O)N[C@@H](C)C(=O)N[C@@H](C)C(N)=O)NC(=O)[C@H](CC2CCC2)NC(=O)[C@H](CCC(N)=O)NC(=O)[C@H](C)NC(=O)[C@H](Cc2c[nH]c3ccccc23)NC(=O)[C@H](Cc2ccc(O)cc2)NC(=O)[C@H](CCC(=O)O)NC1=O)[C@@H](C)O` [Macrocycle 2, Ac-K(N3)-betaAla-L-T-F-X1a-E-Y-W-A-Q-Cba-X2a-AAAAAA-NH2 (olefin staple from X1a to X2a)] (Ac-[Lys(N3)][βAla]LTF[R8]EYWAQ[Cba][S5]AAAAAA-NH2; staple 6-13) displayed a Kd of 0.0094 µM. The “p53 null Ca Ski proliferation % Max” value in the data set on p53 null Ca Ski (72 h, 10% serum) amounted to 29%. Besides, the “% inhibition at maximum concentration in p53 null negative control cell line” value in the data set on p53 null Ca Ski (maximum assay concentration (50 uM)) came to 29%. Moreover, the “HCT116 proliferation % Max” value in the data set on HCT116 (72 h, 10% serum) was 89%. Moreover, the EC50 in the data set on HCT116 (read-out: cellular efficacy in cell proliferation HTC116 p53 positive control cell lines) was 0.57 µM; in the data set with HCT116 cells (0% FBS, 4 h), more than 50 µM; in the data set on HCT116 cells (10% FBS, 16 h), more than 50 µM; in data set [2] (0% FBS, 4 h) it was more than 50 µM; in data set [2] (10% FBS, 16 h) it was more than 50 µM; in data set [3] (0% serum at 4 hours), 0.143 µM. In addition, the EC50 in data set [3] (10% serum at 16 hours) amounted to 0.749 µM. Further, the “fold improvement of cellular activity in p53 cellular assay” value in data set [3] (versus Reference Macrocycle 1, both 0% serum at 4 hours and 10% serum at 16 hours) is reported as approximately 3.5 fold.

With `CC(=O)N[C@@H](CCCCN=[N+]=[N-])C(=O)NCCC(=O)N[C@@H](CC(C)C)C(=O)N[C@H](C(=O)N[C@@H](Cc1ccccc1)C(=O)N[C@]1(C)CCCCCCC=CCCC[C@@](C)(C(=O)N[C@@H](C)C(=O)N[C@@H](C)C(=O)N[C@@H](Cc2ccccc2)C(=O)N[C@@H](C)C(=O)N[C@@H](C)C(=O)N[C@H](Cc2ccccc2)C(N)=O)NC(=O)[C@H](CC2CCC2)NC(=O)[C@H](CCC(N)=O)NC(=O)[C@H](C)NC(=O)[C@H](Cc2c[nH]c3ccccc23)NC(=O)[C@H](Cc2ccc(O)cc2)NC(=O)[C@H](CCC(=O)O)NC1=O)[C@@H](C)O` [Macrocycle 5, Ac-K(N3)-betaAla-L-T-F-X1a-E-Y-W-A-Q-Cba-X2a-AAFAA-(D-Phe)-NH2(olefinstaple from X1ato X2a)] (Ac-[Lys(N3)][βAla]LTF[R8]EYWAQ[Cba][S5]AAFAA[dF]-NH2; staple 6-13), the affinity in data set [1], expressed as Kd, was 0.056 µM. Moreover, the EC50 in the data set on HCT116 cells (0% FBS, 4 h) is more than 50 µM; in the data set with HCT116 cells (10% FBS, 16 h), more than 50 µM; in data set [2] (0% FBS, 4 h), more than 50 µM; in data set [2] (10% FBS, 16 h), more than 50 µM. The pH-dependent lipophilicity (logD) in the data set “HPLC LogD” was determined as 4.12. The amount in solution in “Solubility (PBS, pH 7)” (PBS) (solubility) came to 9 µM (≈ 20.9 µg/mL).

In data set [1], `CC(=O)N[C@@H](CCCCN=[N+]=[N-])C(=O)NCCC(=O)N[C@@H](CC(C)C)C(=O)N[C@H](C(=O)N[C@@H](Cc1ccccc1)C(=O)N[C@]1(C)CCCCCCC=CCCC[C@@](C)(C(=O)N[C@@H](C)C(=O)N[C@@H](C)C(=O)N[C@@H](C)C(=O)N[C@@H](C)C(=O)N[C@@H](C)C(=O)N[C@@H](Cc2ccccc2)C(N)=O)NC(=O)[C@H](CC2CCC2)NC(=O)[C@H](CCC(N)=O)NC(=O)[C@H](C)NC(=O)[C@H](Cc2c[nH]c3ccccc23)NC(=O)[C@H](Cc2ccc(O)cc2)NC(=O)[C@H](CCC(=O)O)NC1=O)[C@@H](C)O` [Macrocycle 6, Ac-K(N3)-betaAla-L-T-F-X1a-E-Y-W-A-Q-Cba-X2a-AAAAAF-NH2 (olefin staple from X1a to X2a)] (Ac-[Lys(N3)][βAla]LTF[R8]EYWAQ[Cba][S5]AAAAAF-NH2; staple 6-13) registered a Kd of 0.0021 µM. Further, the EC50 with HCT116 cells (0% FBS, 4 h) is more than 50 µM; with HCT116 cells (10% FBS, 16 h), more than 50 µM; in data set [2] (0% FBS, 4 h), more than 50 µM; in data set [2] (10% FBS, 16 h) it was more than 50 µM.

In the case of `CC(=O)N[C@@H](CCCCN=[N+]=[N-])C(=O)NCCC(=O)N[C@@H](CC(C)C)C(=O)N[C@H](C(=O)N[C@@H](Cc1ccccc1)C(=O)N[C@]1(C)CCCCCCC=CCCC[C@@](C)(C(=O)N[C@@H](C)C(=O)N[C@@H](C)C(=O)N[C@@H](Cc2ccccc2)C(=O)N[C@@H](C)C(=O)N[C@@H](C)C(=O)N[C@H](C)C(N)=O)NC(=O)[C@H](CC2CCC2)NC(=O)[C@H](CCC(N)=O)NC(=O)[C@H](C)NC(=O)[C@H](Cc2c[nH]c3ccccc23)NC(=O)[C@H](Cc2ccc(O)cc2)NC(=O)[C@H](CCC(=O)O)NC1=O)[C@@H](C)O` [Macrocycle 7, Ac-K(N3)-betaAla-L-T-F-X1a-E-Y-W-A-Q-Cba-X2a-AAFAA-(D-Ala)-NH2(olefinstaple from X1ato X2a)] (Ac-[Lys(N3)][βAla]LTF[R8]EYWAQ[Cba][S5]AAFAA[dA]-NH2; staple 6-13), the Kd in data set [1] came out at 0.0042 µM. The EC50 is more than 50 µM in the data set with HCT116 cells (0% FBS, 4 h); more than 50 µM in the data set on HCT116 cells (10% FBS, 16 h); more than 50 µM in data set [2] (0% FBS, 4 h); more than 50 µM in data set [2] (10% FBS, 16 h). Moreover, the logD in “HPLC LogD” came out at 3.59. The compound further came in with a solubility in “Solubility (PBS, pH 7)” (PBS) of 2 µM (≈ 4.49 µg/mL).

On to `CC(=O)N[C@@H](CCCCN=[N+]=[N-])C(=O)NCCC(=O)N[C@@H](CC(C)C)C(=O)N[C@H](C(=O)N[C@@H](Cc1ccccc1)C(=O)NC1(C)CCCCCCC=CCCCC(C)(C(=O)N[C@@H](C)C(=O)N[C@@H](C)C(=O)N[C@@H](Cc2ccccc2)C(=O)N[C@@H](C)C(=O)NC(C)(CCC(=O)O)C(=O)N[C@@H](Cc2ccccc2)C(N)=O)NC(=O)[C@H](CC2CCC2)NC(=O)[C@H](CCC(N)=O)NC(=O)[C@H](C)NC(=O)[C@H](Cc2c[nH]c3ccccc23)NC(=O)[C@H](Cc2ccc(O)cc2)NC(=O)[C@H](CCC(=O)O)NC1=O)[C@@H](C)O` (stereo partly drawn) [Macrocycle 9, Ac-K(N3)-betaAla-L-T-F-X1a-E-Y-W-A-Q-Cba-X2a-AAFA-(alpha-methyl-Glu)-F-NH2(olefinstaple from X1ato X2a)] (Ac-[Lys(N3)][βAla]LTF[X1]EYWAQ[Cba][ξαMeNle(6-ylidene)]AAFA[ξαMeE]F-NH2; staple 6-13), for which the chromatographic logD in the data set “HPLC LogD” was determined as 2.93. For the same compound, in “Solubility (PBS, pH 7)”, the solubility is 153 µM (≈ 366 µg/mL). Also, the EC50 in data set [2] (0% FBS, 4 h) is more than 50 µM; in data set [2] (10% FBS, 16 h), more than 50 µM.
